Here are results for 16 molecules from ChEMBL document CHEMBL3352494, “New guaiane sesquiterpenes from Artemisia rupestris and their inhibitory effects on nitric oxide production” (Bioorg Med Chem Lett, 2014).

pIC50: −log10 of the molar value.

The subject of data set [1] is RAW264.7. Briefly: Inhibition of NO production in LPS-stimulated mouse RAW264.7 cells pre-incubated for 2 hrs before LPS stimulation for 24 hrs by Griess assay method. Format: functional, cell-based.
The test system of data set [2] is RAW264.7. Briefly: Cytotoxicity against mouse RAW264.7 cells at 0.01 to 100 uM after 24 hrs by MTT assay. Format: cell-based. As to conditions: raw264.7, 24 h.

In data set [1], `C=C(C(=O)O)[C@@H]1CC[C@H](C)[C@]2(O)CC(=O)C(C)=C2C1` gave a pIC50 of 6.74. For the same molecule, in data set [2], the Activity entry was “Non-toxic”.
For `C=C(C(=O)O)[C@@H]1CC[C@](C)(O)[C@@H]2CC(=O)C(C)=C2C1`, in that order: 6.33 and “Non-toxic”.
The corresponding values for `C=C(C(=O)O[C@@H]1O[C@H](CO)[C@@H](O)[C@H](O)[C@H]1O)[C@@H]1CC[C@H](C)[C@@H]2CC(=O)C(C)=C2C1` are 5.34 and “Non-toxic”.
In data set [1], `COc1cc(-c2oc3cc(OC)c(OC)c(O)c3c(=O)c2O)ccc1O` had a negative-log IC50 (pIC50) of 5.32. Besides, the Activity entry in data set [2] is recorded as “Non-toxic”.
The corresponding values for `COc1ccc(Oc2cc(=O)c3c(O)cc(O[C@@H]4O[C@H](CO)[C@@H](O)[C@H](O)[C@H]4O)cc3o2)cc1` are 4.67 and “Non-toxic”.
`COc1ccc(-c2cc(=O)c3c(O)cc(O[C@@H]4O[C@H](CO)[C@@H](O)[C@H](O)[C@H]4O)cc3o2)cc1OC` had a pIC50 in data set [1] of 5.02. For the same molecule, the Activity result in data set [2] is given as “Non-toxic”.
For `COC(=O)[C@@]1(O)C[C@@H](O)[C@@H](OC(=O)/C=C/c2ccc(O)c(O)c2)[C@H](OC(=O)/C=C/c2ccc(O)c(O)c2)C1`, in that order: 4.63 and “Non-toxic”.
Turning to `O=C(/C=C/c1ccc(O)c(O)c1)O[C@@H]1[C@H](O)C[C@](O)(C(=O)O)C[C@H]1OC(=O)/C=C/c1ccc(O)c(O)c1` (relative stereo), the pIC50 in data set [1] is 4.70. The Activity entry in data set [2] is “Non-toxic”.
The corresponding values for `COc1ccc(-c2cc(=O)c3c(O)cc(O[C@@H]4O[C@H](CO[C@@H]5O[C@@H](C)[C@H](O)[C@@H](O)[C@H]5O)[C@@H](O)[C@H](O)[C@H]4O)cc3o2)cc1` [ACACIIN] are 5.00 and “Non-toxic”.
Consider `COc1cc(-c2cc(=O)c3c(O)cc(O)cc3o2)ccc1O` [CHRYSOERIOL], for which the pIC50 in data set [1] was 6.62.
`O=c1cc(-c2ccc(O)c(O)c2)oc2cc(O[C@@H]3O[C@H](CO)[C@@H](O)[C@H](O)[C@H]3O)cc(O)c12` [GALUTEOLIN] gave a negative logarithm of the IC50 (pIC50) in data set [1] of 5.08. In addition, the Activity result in data set [2] is on record as “Non-toxic”.
The corresponding values for `O=c1cc(-c2ccc(O)c(O)c2)oc2cc(O)cc(O)c12` [LUTEOLIN] are 6.68 and “Non-toxic”.
The corresponding values for `COc1ccc(-c2cc(=O)c3c(O)c(OC)c(O)c(OC)c3o2)cc1` [NEVADENSIN] are 5.29 and “Non-toxic”.
For `C=C(C(=O)O)[C@@H]1CC[C@H](C)[C@@H]2CC(=O)C(C)=C2C1` [PECHUELOIC ACID], in that order: 5.52 and “Non-toxic”.
As for `N=C(N)NN` [PIMAGEDINE], the pIC50 in data set [1] was 6.64.
As to `COc1ccc(-c2cc(=O)c3c(O)cc(O[C@@H]4O[C@H](CO)[C@@H](O)[C@H](O)[C@H]4O)cc3o2)cc1` [TILIANINE], the negative logarithm of the IC50 (pIC50) in data set [1] was 5.05. The Activity result in data set [2] is given as “Non-toxic”.
